In patent US20110166121A1 (LG LIFE SCIENCES LTD., priority 2008, published 2011):

Tests used:
Human P2Y12 receptor = target: T1, Human P2Y12 receptor (Homo sapiens, UniProt Q9H244); assay: Human P2Y12 receptor cell membrane binding assay with [3H] 2-Mes-ADP; settings: 1 nM [3H] 2-Mes-ADP, membranes of HEK cells expressing P2Y12 receptor; read-out: Binding activity (IC50)
T1 construct: expressed in transfected cells; host or cells: HEK cells
Summary of the method: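 Competition binding used 1 nM [3H]2-MeS-ADP on P2Y12-expressing HEK cell membranes for 1 h at room temperature, followed by filtration and scintillation counting.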

[1] = tested on: Human platelet aggregation caused by ADP; assay: Inhibition of ADP-induced platelet aggregation (Mimic-human PRP); type: cell-based; settings: 20 μM ADP, human platelet concentrate diluted with PPP, absorption at 595 nm
Summary of the method: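 Ki came from non-linear sigmoidal fits of inhibition, measured as the 3-min rise in absorbance at 595 nm after 20 μM ADP, relative to 0/20 μM ADP controls. Platelets (3–4×10^8/mL in PPP-diluted human PRP) were exposed to 0.01–30 μM compound for 20 min at room temperature beforehand.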

T1 sequence (Q9H244 whole entry): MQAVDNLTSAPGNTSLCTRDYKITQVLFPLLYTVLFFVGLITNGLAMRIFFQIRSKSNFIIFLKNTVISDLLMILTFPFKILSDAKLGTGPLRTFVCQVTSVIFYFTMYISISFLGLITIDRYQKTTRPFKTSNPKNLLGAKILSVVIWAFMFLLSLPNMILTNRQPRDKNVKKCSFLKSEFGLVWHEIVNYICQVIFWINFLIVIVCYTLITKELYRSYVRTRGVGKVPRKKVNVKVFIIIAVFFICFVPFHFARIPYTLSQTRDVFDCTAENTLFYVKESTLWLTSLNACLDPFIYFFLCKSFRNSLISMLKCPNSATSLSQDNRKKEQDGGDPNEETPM

| Structure (SMILES) | IC50 (Human P2Y12 receptor) | Ki [1] |
| --- | --- | --- |
| CCCc1cc2c(N3CCn4c(nnc4C(F)(F)F)C3)nc(OCCC(=O)OCOC(=O)C(C)(C)C)nc2s1 [Example 3-13, 2,2-Dimethyl-propionic Acid 3-[6-propyl-4-(3-trifluoromethyl-5,6-dihydro-8H-[1,2,4]triazolo[4,3-a]pyrazin-7-yl)-thieno[2,3-d]pyrimidin-2-yloxy]-propionyloxymethyl ester] | 410 nM | 430 nM |
| CCCc1cc2c(N3CCn4c(nnc4C(F)(F)F)C3)nc(N3CCCC(C(=O)OCC)C3)nc2s1 (centres unmarked) [Example 1-45, 1-[6-Propyl-4-(3-trifluoromethyl-5,6-dihydro-8H-[1,2,4]triazolo[4,3-a]pyrazin-7-yl)-thieno[2,3-d]pyrimidin-2-yl]-piperidine-3-carboxylic acid ethyl ester] | 340 nM | 1000 nM |
| CCCc1cc2c(N3CCn4c(nnc4C(F)(F)F)C3)nc(COc3ccccc3)nc2s1 [Example 4-23, 7-(2-Phenoxymethyl-6-propyl-thieno[2,3-d]pyrimidin-4-yl)-3-trifluoromethyl-5,6,7,8-tetrahydro-[1,2,4]triazolo[4,3-a]pyrazine] | 420 nM | 6850 nM |
| CCCc1cc2c(N3CCn4c(nnc4C(F)(F)F)C3)nc(OCCc3cc(F)cc(F)c3F)nc2s1 [Example 3-21, 7-{6-Propyl-2-[2-(2,3,5-trifluoro-phenyl)-ethoxy]-thieno[2,3-d]pyrimidin-4-yl}-3-trifluoromethyl-5,6,7,8-tetrahydro-[1,2,4]triazolo[4,3-a]pyrazine] | 110 nM | 390 nM |
| CCCc1cc2c(N3CCn4c(nnc4C(F)(F)F)C3)nc(OCc3ccccc3)nc2s1 [Example 3-16, 7-(2-Benzyloxy-6-propyl-thieno[2,3-d]pyrimidin-4-yl)-3-trifluoromethyl-5,6,7,8-tetrahydro-[1,2,4]triazolo[4,3-a]pyrazine] | 39 nM | 27600 nM |
| CCCc1cc2c(N3CCn4c(nnc4C(F)(F)F)C3)nc(N3CCN(CC4CCCCC4)CC3)nc2s1 [Example 1-42, 7-[2-(4-Cyclohexylmethyl-piperazin-1-yl)-6-propyl-thieno[2,3-d]pyrimidin-4-yl]-3-trifluoromethyl-5,6,7,8-tetrahydro-[1,2,4]triazolo[4,3-a]pyrazine] | 1170 nM | 7300 nM |
| CCCc1cc2c(N3CCn4c(nnc4C(F)(F)F)C3)nc(C(=O)Nc3ccccc3)nc2s1 [Example 4-16, 6-Propyl-4-(3-trifluoromethyl-5,6-dihydro-8H-[1,2,4]triazolo[4,3-a]pyrazin-7-yl)-thieno[2,3-d]pyrimidine-2-carboxylic acid phenylamide] | 650 nM | > 4000 nM |
| CCCc1cc2c(N3CCn4c(nnc4C(F)(F)F)C3)nc(Oc3cccc(C(=O)O)c3)nc2s1 [Example 3-31, 3-[6-Propyl-4-(3-trifluoromethyl-5,6-dihydro-8H-[1,2,4]triazolo[4,3-a]pyrazin-7-yl)-thieno[2,3-d]pyrimidin-2-yloxy]-benzoic acid] | 196 nM | 2000 nM |
| CCCc1cc2c(N3CCn4c(nnc4C(F)(F)F)C3)nc(OCc3cocn3)nc2s1 [Example 3-20, 7-[2-(Oxazol-4-ylmethoxy)-6-propyl-thieno[2,3-d]pyrimidin-4-yl]-3-trifluoromethyl-5,6,7,8-tetrahydro-[1,2,4]triazolo[4,3-a]pyrazine] | 84 nM | 840 nM |
| CCCc1cc2c(N3CCn4c(nnc4C(F)(F)F)C3)nc(C(=O)N3CCC(O)C3)nc2s1 (centres unmarked) [Example 4-12, (3-Hydroxy-pyrrolidin-1-yl)-[6-propyl-4-(3-trifluoromethyl-5,6-dihydro-8H-[1,2,4]triazolo[4,3-a]pyrazin-7-yl)thieno[2,3-d]pyrimidin-2-yl]methanon] | 1100 nM | 95 nM |
| CCCc1cc2c(N3CCn4c(nnc4C(F)(F)F)C3)nc(N3CCC(O)CC3)nc2s1 [Example 1-26, 1-[6-Propyl-4-(3-trifluoromethyl-5,6-dihydro-8H-[1,2,4]triazolo[4,3-a]pyrazin-7-yl)-thieno[2,3-d]pyrimidin-2-yl]-piperidin-4-ol] | 60 nM | 1200 nM |
| CCCc1cc2c(N3CCn4c(nnc4C(F)(F)F)C3)nc(N3CCNc4ccccc43)nc2s1 [Example 1-68, 1-[6-Propyl-4-(3-trifluoromethyl-5,6-dihydro-8H-[1,2,4]triazolo[4,3-a]pyrazin-7-yl)-thieno[2,3-d]pyrimidin-2-yl]-1,2,3,4-tetrahydro-quinoxaline] | 100 nM | 430 nM |
| CCCc1cc2c(N3CCn4c(nnc4C(F)(F)F)C3)nc(OCCOC)nc2s1 [Example 3-4, 7-[2-(2-Methoxy-ethoxy)-6-propyl-thieno[2,3-d]pyrimidin-4-yl]-3-trifluoromethyl-5,6,7,8-tetrahydro-[1,2,4]triazolo[4,3-a]pyrazine] | 170 nM | 230 nM |
| CCCc1cc2c(N3CCn4c(nnc4C(F)(F)F)C3)nc(N3CCC[C@H]3C(=O)OC(C)C)nc2s1 [Example 1-51, (S)-1-[6-Propyl-4-(3-trifluoromethyl-5,6-dihydro-8H-[1,2,4]triazolo[4,3-a]pyrazin-7-yl)-thieno[2,3-d]pyrimidin-2-yl]-pyrrolidine-2-carboxylic acid isopropyl ester] | 220 nM | 800 nM |
| CCCc1cc2c(N3CCn4c(nnc4C(F)(F)F)C3)nc(N3CC[C@H](NC(=O)CC(F)(F)F)C3)nc2s1 [Example 1-104, 3,3,3-Trifluoro-N-{(S)-1-[6-propyl-4-(3-trifluoromethyl-5,6-dihydro-8H-[1,2,4]triazolo[4,3-a]pyrazin-7-yl)-thieno[2,3-d]pyrimidin-2-yl]-pyrrolidin-3-yl}-propionamide] | 80 nM | 86 nM |
| CCCc1cc2c(N3CCn4c(nnc4C(F)(F)F)C3)nc(N3CCC[C@H]3C(=O)OC)nc2s1 [Example 1-49, (S)-1-[6-Propyl-4-(3-trifluoromethyl-5,6-dihydro-8H-[1,2,4]triazolo[4,3-a]pyrazin-7-yl)-thieno[2,3-d]pyrimidin-2-yl]-pyrrolidine-2-carboxylic acid methyl ester] | 98 nM | 230 nM |
| CCCc1cc2c(N3CCn4c(C)nnc4C3)nc(OCC(CO)CO)nc2s1 [Example 6-18, 2-[4-(3-Methyl-5,6-dihydro-8H-[1,2,4]triazolo[4,3-a]pyrazin-7-yl)-6-propyl-thieno[2,3-d]pyrimidin-2-yloxymethyl]-propane-1,3-diol] | 670 nM | 300 nM |
| CC(C)Cc1cc2c(N3CCn4c(nnc4C(F)(F)F)C3)nc(N3CC[C@@H](O)C3)nc2s1 [Example 2-18, (R)-1-[6-Isobutyl-4-(3-trifluoromethyl-5,6-dihydro-8H-[1,2,4]triazolo[4,3-a]pyrazin-7-yl)-thieno[2,3-d]pyrimidin-2-yl]-pyrrolidin-3-ol] | 330 nM | 310 nM |
| CCCc1cc2c(N3CCn4c(nnc4C(F)(F)F)C3)nc(-c3nnc(CCO)o3)nc2s1 [Example 4-38, 2-{5-[6-Propyl-4-(3-trifluoromethyl-5,6-dihydro-8H-[1,2,4]triazolo[4,3-a]pyrazin-7-yl)thieno[2,3-d]pyrimidin-2-yl]-[1,3,4]oxadiazol-2-yl}ethanol] | 320 nM | 250 nM |
| CCCc1cc2c(N3CCn4c(nnc4C(F)(F)F)C3)nc(-c3nnc(N)o3)nc2s1 [Example 4-39, 5-[6-Propyl-4-(3-trifluoromethyl-5,6-dihydro-8H-[1,2,4]triazolo[4,3-a]pyrazin-7-yl)thieno[2,3-d]pyrimidin-2-yl]-[1,3,4]oxadiazol-2-ylamine] | 100 nM | 160 nM |
| CCCc1cc2c(N3CCn4c(nnc4C(F)(F)F)C3)nc(Oc3ccc(CO)cc3)nc2s1 [Example 3-48, {4-[6-Propyl-4-(3-trifluoromethyl-5,6-dihydro-8H-[1,2,4]triazolo[4,3-a]pyrazin-7-yl)-thieno[2,3-d]pyrimidin-2-yloxy]-phenyl}-methanol] | 340 nM | > 4000 nM |
| CCCc1cc2c(N3CCn4c(nnc4C(F)(F)F)C3)nc(OCC(=O)OC)nc2s1 [Example 3-8, [6-Propyl-4-(3-trifluoromethyl-5,6-dihydro-8H-[1,2,4]triazolo[4,3-a]pyrazin-7-yl)-thieno[2,3-d]pyrimidin-2-yloxy]-acetic acid methyl ester] | 331 nM | 610 nM |
| CCCc1cc2c(N3CCn4c(nnc4C(F)(F)F)C3)nc(N3CCC(C#N)C3)nc2s1 (centres unmarked) [Example 1-55, 1-[6-Propyl-4-(3-trifluoromethyl-5,6-dihydro-8H-[1,2,4]triazolo[4,3-a]pyrazin-7-yl)-thieno[2,3-d]pyrimidin-2-yl]-pyrrolidine-3-carbonitrile] | 60 nM | 27 nM |
| CCCc1cc2c(N3CCn4c(nnc4C(F)(F)F)C3)nc(Oc3ccccc3)nc2s1 [Example 3-28, 7-(2-Phenoxy-6-propyl-thieno[2,3-d]pyrimidin-4-yl)-3-trifluoromethyl-5,6,7,8-tetrahydro-[1,2,4]triazolo[4,3-a]pyrazine] | 179 nM | 9700 nM |
| CCCc1cc2c(N3CCn4c(nnc4C(F)(F)F)C3)nc(N3CC[C@H](C(=O)NC)C3)nc2s1 [Example 1-87, (S)-1-[6-Propyl-4-(3-trifluoromethyl-5,6-dihydro-8H-[1,2,4]triazolo[4,3-a]pyrazin-7-yl)-thieno[2,3-d]pyrimidin-2-yl]-pyrrolidine-3-carboxylic acid methylamide] | 67 nM | 11 nM |
